Experimental data published in article PMC3733398 (ACS medicinal chemistry letters, 2013).
Converted amounts (≈) assume the structure as drawn. “And” between values parts separate entries of the source, which are not always exact repeats. Equal entries are not always repeated.

Experiments:
[1] = test system: DS-Mtb2 (drug sensitive clinical isolate #2); assay: MIC against clinical strain DS-Mtb2; assay type: cell-based; conditions: Mycobacterium tuberculosis, 90% growth inhibition by optical density
XDR-Mtb HRESKO = assay: microbe, parasite or virus in culture; assay type: cell-based; conditions: Mycobacterium tuberculosis
MDR-Mtb HREKP = assay: microbe, parasite or virus in culture; assay type: cell-based; conditions: Mycobacterium tuberculosis
XDR-Mtb HREKO = assay: microbe, parasite or virus in culture; assay type: cell-based; conditions: Mycobacterium tuberculosis
[2] = test system: DS-Mtb1 (drug sensitive clinical isolate #1); assay: MIC against clinical strain DS-Mtb1; assay type: cell-based; conditions: Mycobacterium tuberculosis
MDR-Mtb HRERb = assay: microbe, parasite or virus in culture; assay type: cell-based; conditions: Mycobacterium tuberculosis
MDR-Mtb HREZSKP = assay: microbe, parasite or virus in culture; assay type: cell-based; conditions: Mycobacterium tuberculosis
[3] = test system: sensitive, MDR and XDR clinical Mtb strains; assay type: cell-based, Mycobacterium tuberculosis; conditions: range over the DS, MDR and XDR clinical strains of Table 2
Mtb H37Rv = assay: MIC against replicating Mtb H37Rv, dual read-out; assay type: cell-based; conditions: Mycobacterium tuberculosis
CYP3A4 [4] = molecular target: T1, CYP3A4 (Homo sapiens, UniProt P08684); assay: Time dependent inhibition of human CYP3A4; conditions: at 10 μM
T1 sequence (P08684 whole entry): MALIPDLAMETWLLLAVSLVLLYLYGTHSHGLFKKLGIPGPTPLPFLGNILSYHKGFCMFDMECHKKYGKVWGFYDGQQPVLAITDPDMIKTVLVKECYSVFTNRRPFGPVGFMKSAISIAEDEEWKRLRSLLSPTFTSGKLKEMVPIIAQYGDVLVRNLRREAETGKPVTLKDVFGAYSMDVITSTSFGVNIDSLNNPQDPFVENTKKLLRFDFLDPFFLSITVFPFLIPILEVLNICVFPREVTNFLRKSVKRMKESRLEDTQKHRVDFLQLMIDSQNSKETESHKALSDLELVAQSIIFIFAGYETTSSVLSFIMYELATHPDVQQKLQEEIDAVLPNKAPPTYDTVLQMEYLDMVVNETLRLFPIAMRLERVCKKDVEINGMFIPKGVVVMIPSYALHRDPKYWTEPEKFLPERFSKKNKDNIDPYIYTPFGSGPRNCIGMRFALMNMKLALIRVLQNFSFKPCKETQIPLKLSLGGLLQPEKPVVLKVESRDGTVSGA

CYP3A4 [5] = molecular target: T1, CYP3A4; assay: Human cytochrome P-450 inhibition, CYP 3A4; conditions: panel of human cytochrome P-450 enzymes
in vivo = conditions: rat, iv, 1 mg/kg
in vitro = in vitro ADME
[6] = rat, microsomes

In the case of `O=[N+]([O-])c1cn2c(n1)OC[C@@H](OCc1ccc(OC(F)(F)F)cc1)C2` [PA-824, reference compound], the MIC [1] is reported as > 5 µg/mL, the MIC (XDR-Mtb HRESKO) is reported as 0.3 µg/mL (≈ 0.835 µM) and the MIC (MDR-Mtb HREKP) is reported as 0.5 µM to 0.9 µM and 0.2 µg/mL to 0.3 µg/mL. For the same molecule, the MIC (XDR-Mtb HREKO) was 0.08 µg/mL (≈ 0.223 µM), the MIC [2] was 0.5 µM to 0.9 µM and 0.2 µg/mL to 0.3 µg/mL and the MIC (MDR-Mtb HRERb) was 0.5 µM to 0.9 µM and 0.2 µg/mL to 0.3 µg/mL. The MIC (MDR-Mtb HREZSKP) was 0.5 µM to 0.9 µM and 0.2 µg/mL to 0.3 µg/mL.

With `Cc1ccn2c(C(=O)NCc3ccc(Oc4ccc(F)cc4)cc3)c(C)nc2c1` [Compound 18] the MIC [1] was < 0.01 µg/mL, the MIC (XDR-Mtb HRESKO) was < 0.01 µg/mL and the MIC (MDR-Mtb HREKP) was < 0.01 µg/mL. The “MIC range against the clinical strains” value [3] was <0.03 to 0.8 µM, the MIC (Mtb H37Rv) was < 0.005 µM and the “time dependent inhibition of human CYP3A4” value (CYP3A4 [4]) was “time dependent inhibitors”. The MIC (XDR-Mtb HREKO) was < 0.01 µg/mL, the MIC [2] was < 0.01 µg/mL and the MIC (MDR-Mtb HRERb) was 0.31 µg/mL (≈ 0.796 µM). The MIC (MDR-Mtb HREZSKP) was 0.03 µM to 0.8 µM and 0.01 µg/mL to 0.3 µg/mL.

For `Cc1ccn2c(C(=O)NCc3ncc(C(F)(F)F)cc3Cl)c(C)nc2c1` [Compound 13], the MIC [1] was 0.3 µg/mL (≈ 0.784 µM), the MIC (XDR-Mtb HRESKO) was 0.3 µg/mL (≈ 0.784 µM) and the MIC (MDR-Mtb HREKP) was 0.2 µg/mL (≈ 0.523 µM). It also gave an inhibition at 10 µM (CYP3A4 [5]) of 0%, a clearance (in vivo) of 25 mL/min/kg and a fraction unbound (in vitro) of 0.089. For the same molecule, the “time dependent inhibition of human CYP3A4” value (CYP3A4 [4]) was “time dependent inhibitors”, the MIC (XDR-Mtb HREKO) was 0.3 µg/mL (≈ 0.784 µM) and the MIC [2] was 0.3 µg/mL (≈ 0.784 µM). For the same molecule, the “% metabolized” value [6] was 19%, the MIC (MDR-Mtb HRERb) was 13 µM to 26 µM and 5 µg/mL to 10 µg/mL and the MIC (MDR-Mtb HREZSKP) was 2.5 µg/mL (≈ 6.53 µM).

For `Cc1ccc2nc(C)c(C(=O)NCc3ccccc3)n2c1` [Compound 9], the MIC [1] was < 0.01 µg/mL, the MIC (XDR-Mtb HRESKO) was < 0.01 µg/mL and the MIC (MDR-Mtb HREKP) was < 0.01 µg/mL. The MIC (XDR-Mtb HREKO) was < 0.01 µg/mL, the MIC [2] was 0.04 µM to 0.07 µM and 0.01 µg/mL to 0.02 µg/mL and the MIC (MDR-Mtb HRERb) was 0.63 µg/mL (≈ 2.26 µM). For the same molecule, the MIC (MDR-Mtb HREZSKP) was < 0.01 µg/mL.
